Measurements from patent US9758445B2, “Preparation of surfactants via cross-metathesis” (MATERIA, INC., priority 2013, dated 2017).
Read-outs that look alike come from different tables or passages of the source.

Experiments:
[1] = at 20° C.; purity 91%; N. M. van Os et al. Tenside Surf. Det. 1992, 29 175; cited from earlier work
[2] = Critical Micelle Concentration (CMC) from the electrical conductivity-concentration curve at constant temperature; format: physicochemical
Procedure: The Critical Micelle Concentration (CMC) is defined as the concentration of surfactants above which micelles form and all additional surfactants added to the system go to micelles. The CMC is measured by the electrical conductivity-concentration curve at constant temperature.

[3] = Surface tension above CMC; format: physicochemical
[4] = Krafft Point from the abrupt increase in electrical conductivity as a function of temperature; format: physicochemical
Procedure: Krafft Point or Krafft Temperature is defined as the […]. Surfactants form micelles above their Krafft Point and the solubility in water increases abruptly. The Krafft point was determined by the abrupt increase in the electrical conductivity of as a function of temperature. The intersection of the two solubility lines is the Krafft Point.

[5] = purity 91%; N. M. van Os et al. Tenside Surf. Det. 1992, 29 175; cited from earlier work
[6] = Surfactant Foaming Test in tap water; format: physicochemical; design: key: A: No Foam Generated; B: Small Volume of Foam Generated; C: Large Volume of Foam Generated; conditions: surfactant 0.023 wt %, tap water 7.0 mL, 23° C., shaken vigorously, foaming recorded after standing 3 minutes
Procedure: To a 20 mL scintillation vial was added surfactant (0.023 wt %) and tap water (7.0 mL, 23° C.). The vial was sealed and the solution was shaken vigorously. The solution was allowed to stand for 3 minutes and foaming was recorded.

SMILES | Surfactant Foaming Test Results [6] | other results
CCCCCCCCC(C)c1ccc(S(=O)(=O)O)cc1 (centres unmarked) [2-PhC10 LAS, sodium 4-(decan-2-yl)benzenesulfonate] | – | CMC (mmol/L) at Temp (° C.) [1]: 4.5 at 20 °C mmol/L; CMC (mmol/L) at Temp (° C.) ([2]; at 22.0° C.): 4.4 at 22.0 °C mmol/L; Surface Tension [3]: 43 dynes/cm; Krafft Point [4]: 22.5 °C; Krafft Point [5]: 22.0 °C (NR^2)
CCCCCCCCCC(C)c1ccc(S(=O)(=O)O)cc1 (centres unmarked) [2-PhC11 LAS, sodium 4-(undecan-2-yl)benzenesulfonate] | – | CMC (mmol/L) at Temp (° C.) ([2]; at 22.0° C.): 1.9 at 22.0 °C mmol/L; Surface Tension [3]: 43 dynes/cm; Krafft Point [4]: 23.0 °C
CCCCCCCCCCC(C)c1ccc(S(=O)(=O)O)cc1 (centres unmarked) [2-PhC12 LAS, sodium 4-(dodecan-2-yl)benzenesulfonate] | – | CMC (mmol/L) at Temp (° C.) ([2]; at 22.5° C.): 2.1 at 22.5 °C mmol/L; Surface Tension [3]: 41 dynes/cm; Krafft Point [4]: 22.5 °C
CCCCCCCCCCCCCCC(C)c1ccc(S(=O)(=O)O)cc1 (centres unmarked) [2-PhC16 LAS, sodium 4-(hexadecan-2-yl)benzenesulfonate] | – | CMC (mmol/L) at Temp (° C.) ([2]; at 44.0° C.): 1.5 at 44.0 °C mmol/L; Surface Tension [3]: 44 dynes/cm; Krafft Point [4]: 45.0 °C
CCCCCCCCC(C)c1ccc(COCCOCCOCCOC)cc1 (centres unmarked) [R=CH2O(CH2CH2O)3CH3; n=7, 1-(4-(Decan-2-yl)phenyl)-2,5,8,11-tetraoxadodecane] | A | –
CCCCCCCCCCC(C)c1ccc(COCCOCCOCCOC)cc1 (centres unmarked) [R=CH2O(CH2CH2O)3CH3; n=9, 1-(4-(Dodecan-2-yl)phenyl)-2,5,8,11-tetraoxadodecane] | B | –
CCCCCCCCCCCCC(C)c1ccc(COCCOCCOCCOC)cc1 (centres unmarked) [R=CH2O(CH2CH2O)3CH3; n=11, 1-(4-(Tetradecan-2-yl)phenyl)-2,5,8,11-tetraoxadodecane] | B | –
CCCCCCCCC(C)c1ccc(COCCOCCOCCO)cc1 (centres unmarked) [R=CH2O(CH2CH2O)3H; n=7, 2-(2-(2-((4-(Decan-2-yl)benzyl)oxy)ethoxy)ethoxy)ethanol] | C | –
CCCCCCCCCC(C)c1ccc(COCCOCCOCCO)cc1 (centres unmarked) [R=CH2O(CH2CH2O)3H; n=8, 2-(2-(2-((4-(undecan-2-yl)benzyl)oxy)ethoxy)ethoxy)ethanol] | C | –
CCCCCCCCCCC(C)c1ccc(COCCOCCOCCO)cc1 (centres unmarked) [R=CH2O(CH2CH2O)3H; n=9, 2-(2-(2-((4-(dodecan-2-yl)benzyl)oxy)ethoxy)ethoxy)ethanol] | C | –
CCCCCCCCCCCC(C)c1ccc(COCCOCCOCCO)cc1 (centres unmarked) [R=CH2O(CH2CH2O)3H; n=10, 2-(2-(2-((4-(tridecan-2-yl)benzyl)oxy)ethoxy)ethoxy)ethanol] | C | –
CCCCCCCCCCCCC(C)c1ccc(COCCOCCOCCO)cc1 (centres unmarked) [R=CH2O(CH2CH2O)3H; n=11, 2-(2-(2-((4-(tetradecan-2-yl)benzyl)oxy)ethoxy)ethoxy)ethanol] | C | –
CCCCCCCCC(C)c1ccc(COCCOCCOCCOCCOC)cc1 (centres unmarked) [R=CH2O(CH2CH2O)4CH3; n=7, 1-(4-(Decan-2-yl)phenyl)-2,5,8,11,14-pentaoxapentadecane] | C | –
CCCCCCCCCC(C)c1ccc(COCCOCCOCCOCCOC)cc1 (centres unmarked) [R=CH2O(CH2CH2O)4CH3; n=8, 1-(4-(Undecan-2-yl)phenyl)-2,5,8,11,14-pentaoxapentadecane] | B | –
CCCCCCCCCCC(C)c1ccc(COCCOCCOCCOCCOC)cc1 (centres unmarked) [R=CH2O(CH2CH2O)4CH3; n=9, 1-(4-(Dodecan-2-yl)phenyl)-2,5,8,11,14-pentaoxapentadecane] | C | –
CCCCCCCCCCCC(C)c1ccc(COCCOCCOCCOCCOC)cc1 (centres unmarked) [R=CH2O(CH2CH2O)4CH3; n=10, 1-(4-(Tridecan-2-yl)phenyl)-2,5,8,11,14-pentaoxapentadecane] | B | –
CCCCCCCCCCCCC(C)c1ccc(COCCOCCOCCOCCOC)cc1 (centres unmarked) [R=CH2O(CH2CH2O)4CH3; n=11, 1-(4-(Tetradecan-2-yl)phenyl)-2,5,8,11,14-pentaoxapentadecane] | B | –
CCCCCCCCCCCCCCC(C)c1ccc(COCCOCCOCCOCCOC)cc1 (centres unmarked) [R=CH2O(CH2CH2O)4CH3; n=13, 1-(4-(Hexadecan-2-yl)phenyl)-2,5,8,11,14-pentaoxapentadecane] | B | –
CCCCCCCCC(C)c1ccc(COCCOCCOCCOCCO)cc1 (centres unmarked) [R=CH2O(CH2CH2O)4H; n=7, 1-(4-(Decan-2-yl)phenyl)-2,5,8,11-tetraoxatridecan-13-ol] | C | –
CCCCCCCCCC(C)c1ccc(COCCOCCOCCOCCO)cc1 (centres unmarked) [R=CH2O(CH2CH2O)4H; n=8, 1-(4-(Undecan-2-yl)phenyl)-2,5,8,11-tetraoxatridecan-13-ol] | C | –
CCCCCCCCCCC(C)c1ccc(COCCOCCOCCOCCO)cc1 (centres unmarked) [R=CH2O(CH2CH2O)4H; n=9, 1-(4-(Dodecan-2-yl)phenyl)-2,5,8,11-tetraoxatridecan-13-ol] | C | –
CCCCCCCCCCCC(C)c1ccc(COCCOCCOCCOCCO)cc1 (centres unmarked) [R=CH2O(CH2CH2O)4H; n=10, 1-(4-(Tridecan-2-yl)phenyl)-2,5,8,11-tetraoxatridecan-13-ol] | C | –
CCCCCCCCCCCCC(C)c1ccc(COCCOCCOCCOCCO)cc1 (centres unmarked) [R=CH2O(CH2CH2O)4H; n=11, 1-(4-(Tetradecan-2-yl)phenyl)-2,5,8,11-tetraoxatridecan-13-ol] | C | –

SMILES | Surfactant Foaming Test Results [6] | other results
CCCCCCCCCCCCCCC(C)c1ccc(COCCOCCOCCOCCO)cc1 (centres unmarked) [R=CH2O(CH2CH2O)4H; n=13, 1-(4-(Hexadecan-2-yl)phenyl)-2,5,8,11-tetraoxatridecan-13-ol] | C | –
CCCCCCCCC(C)c1ccc(COCCOC)cc1 (centres unmarked) [R=CH2OCH2CH2OCH3; n=7, 1-(Decan-2-yl)-4-((2-methoxyethoxy)methyl)benzene] | B | –
CCCCCCCCCCCC(C)c1ccc(COCCOC)cc1 (centres unmarked) [R=CH2OCH2CH2OCH3; n=10, 1-((2-Methoxyethoxy)methyl)-4-(tridecan-2-yl)benzene] | C | –
CCCCCCCCCCCCC(C)c1ccc(COCCOC)cc1 (centres unmarked) [R=CH2OCH2CH2OCH3; n=11, 1-((2-Methoxyethoxy)methyl)-4-(tetradecan-2-yl)benzene] | C | –
CCCCCCCCCCCCCCC(C)c1ccc(COCCOC)cc1 (centres unmarked) [R=CH2OCH2CH2OCH3; n=13, 1-(Hexadecan-2-yl)-4-((2-methoxyethoxy)methyl)benzene] | C | –
CCCCCCCCC(C)c1ccc(COCCO)cc1 (centres unmarked) [R=CH2OCH2CH2OH; n=7, 2-((4-(Decan-2-yl)benzyl)oxy)ethanol] | A | –
CCCCCCCCCC(C)c1ccc(COCCO)cc1 (centres unmarked) [R=CH2OCH2CH2OH; n=8, 2-((4-(Undecan-2-yl)benzyl)oxy)ethanol] | A | –
CCCCCCCCCCC(C)c1ccc(COCCO)cc1 (centres unmarked) [R=CH2OCH2CH2OH; n=9, 2-((4-(Dodecan-2-yl)benzyl)oxy)ethanol] | A | –
CCCCCCCCCCCC(C)c1ccc(COCCO)cc1 (centres unmarked) [R=CH2OCH2CH2OH; n=10, 2-((4-(Tridecan-2-yl)benzyl)oxy)ethanol] | A | –
CCCCCCCCCCCCC(C)c1ccc(COCCO)cc1 (centres unmarked) [R=CH2OCH2CH2OH; n=11, 2-((4-(Tetradecan-2-yl)benzyl)oxy)ethanol] | A | –
CCCCCCCCCCCCCCC(C)c1ccc(COCCO)cc1 (centres unmarked) [R=CH2OCH2CH2OH; n=13, 2-((4-(Hexadecan-2-yl)benzyl)oxy)ethanol] | A | –
CCCCCCCCC(C)c1ccc(CO)cc1 (centres unmarked) [R=CH2OH; n=7, (4-(Decan-2-yl)phenyl)methanol] | A | –
CCCCCCCCCC(C)c1ccc(CO)cc1 (centres unmarked) [R=CH2OH; n=8, (4-(Undecan-2-yl)phenyl)methanol] | A | –
CCCCCCCCCCC(C)c1ccc(CO)cc1 (centres unmarked) [R=CH2OH; n=9, (4-(Dodecan-2-yl)phenyl)methanol] | A | –
CCCCCCCCCCCC(C)c1ccc(CO)cc1 (centres unmarked) [R=CH2OH; n=10, (4-(Tridecan-2-yl)phenyl)methanol] | A | –
CCCCCCCCCCCCC(C)c1ccc(CO)cc1 (centres unmarked) [R=CH2OH; n=11, (4-(Tetradecan-2-yl)phenyl)methanol] | A | –
CCCCCCCCCCCCCCC(C)c1ccc(CO)cc1 (centres unmarked) [R=CH2OH; n=13, (4-(Hexadecan-2-yl)phenyl)methanol] | A | –
CCCCCCCCC(C)c1ccccc1 (centres unmarked) [R=H; n=7, 2-Phenyldecane] | A | –
CCCCCCCCCC(C)c1ccccc1 (centres unmarked) [R=H; n=8, 2-Phenylundecane] | A | –
CCCCCCCCCCC(C)c1ccccc1 (centres unmarked) [R=H; n=9, 2-Phenyldodecane] | A | –
CCCCCCCCCCCC(C)c1ccccc1 (centres unmarked) [R=H; n=10, 2-phenyltridecane] | A | –
CCCCCCCCCCCCC(C)c1ccccc1 (centres unmarked) [R=H; n=11, 2-phenyltetradecane] | A | –
CCCCCCCCCCCCCCC(C)c1ccccc1 (centres unmarked) [R=H; n=13, 2-Phenylhexadecane] | A | –
